Consider 18 compounds from ChEMBL document CHEMBL2016464, “Identification of Inhibitors of NOD1-Induced Nuclear Factor-κB Activation” (ACS Med Chem Lett, 2011).

Values after ≈ are worked out from the molar mass of the structure shown. Where only a bound is given, the exact number is not on record here.

The nature of data set [1]: cells. To be noted: Homo sapiens, HEK-293T, 14 h.
Description: Inhibition of TNFalpha-induced NFkappaB activation in HEK293T cells after 14 hrs by luciferase reporter gene assay
The target of data set [2] is T1, Nucleotide-binding oligomerization domain-containing protein 1 (Homo sapiens, UniProt Q9Y239).
T1 sequence (Q9Y239 whole entry): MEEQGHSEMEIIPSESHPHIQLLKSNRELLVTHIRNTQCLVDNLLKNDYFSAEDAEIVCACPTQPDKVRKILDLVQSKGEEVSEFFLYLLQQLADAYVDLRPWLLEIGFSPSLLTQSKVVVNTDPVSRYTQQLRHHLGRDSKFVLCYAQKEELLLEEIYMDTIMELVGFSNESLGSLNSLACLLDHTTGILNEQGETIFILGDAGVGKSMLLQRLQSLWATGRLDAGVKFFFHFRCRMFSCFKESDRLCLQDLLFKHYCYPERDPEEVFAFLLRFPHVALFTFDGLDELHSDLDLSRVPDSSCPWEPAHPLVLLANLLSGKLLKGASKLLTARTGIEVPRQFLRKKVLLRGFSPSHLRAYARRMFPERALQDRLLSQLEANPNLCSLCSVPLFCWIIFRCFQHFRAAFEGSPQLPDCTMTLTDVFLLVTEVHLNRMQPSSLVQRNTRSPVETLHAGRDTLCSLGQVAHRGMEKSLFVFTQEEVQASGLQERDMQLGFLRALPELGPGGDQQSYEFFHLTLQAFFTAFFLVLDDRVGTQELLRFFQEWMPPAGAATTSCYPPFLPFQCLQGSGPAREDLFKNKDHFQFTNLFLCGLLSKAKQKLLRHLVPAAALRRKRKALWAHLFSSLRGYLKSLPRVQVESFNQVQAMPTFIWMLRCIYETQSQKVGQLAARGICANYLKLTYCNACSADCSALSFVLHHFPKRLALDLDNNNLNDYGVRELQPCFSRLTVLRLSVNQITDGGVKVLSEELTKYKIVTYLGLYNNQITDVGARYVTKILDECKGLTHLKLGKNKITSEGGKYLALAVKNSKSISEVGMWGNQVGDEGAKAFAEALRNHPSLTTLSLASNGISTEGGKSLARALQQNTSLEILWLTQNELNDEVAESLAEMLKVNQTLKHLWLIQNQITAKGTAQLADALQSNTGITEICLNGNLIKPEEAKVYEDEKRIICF

The test system of data set [3] is HEK-293T. Kind of data set: Cytotoxicity against HEK293T cells at 20 uM by alamar blue assay. It is filed as cell-based. To be noted: human. A general note: Alamar Blue is a resazurin reagent that responds to reducing activity.
Data set [4] deals with Nucleotide-binding oligomerization domain-containing protein 2 (Homo sapiens, UniProt Q9HC29).
A short description of data set [5]: Solubility of the compound at pH 7.4. The conditions noted are these: buffer. It is filed as physicochemical.

Chain of Nucleotide-binding oligomerization domain-containing protein 2 (Q9HC29 whole entry, the tested form may be a part): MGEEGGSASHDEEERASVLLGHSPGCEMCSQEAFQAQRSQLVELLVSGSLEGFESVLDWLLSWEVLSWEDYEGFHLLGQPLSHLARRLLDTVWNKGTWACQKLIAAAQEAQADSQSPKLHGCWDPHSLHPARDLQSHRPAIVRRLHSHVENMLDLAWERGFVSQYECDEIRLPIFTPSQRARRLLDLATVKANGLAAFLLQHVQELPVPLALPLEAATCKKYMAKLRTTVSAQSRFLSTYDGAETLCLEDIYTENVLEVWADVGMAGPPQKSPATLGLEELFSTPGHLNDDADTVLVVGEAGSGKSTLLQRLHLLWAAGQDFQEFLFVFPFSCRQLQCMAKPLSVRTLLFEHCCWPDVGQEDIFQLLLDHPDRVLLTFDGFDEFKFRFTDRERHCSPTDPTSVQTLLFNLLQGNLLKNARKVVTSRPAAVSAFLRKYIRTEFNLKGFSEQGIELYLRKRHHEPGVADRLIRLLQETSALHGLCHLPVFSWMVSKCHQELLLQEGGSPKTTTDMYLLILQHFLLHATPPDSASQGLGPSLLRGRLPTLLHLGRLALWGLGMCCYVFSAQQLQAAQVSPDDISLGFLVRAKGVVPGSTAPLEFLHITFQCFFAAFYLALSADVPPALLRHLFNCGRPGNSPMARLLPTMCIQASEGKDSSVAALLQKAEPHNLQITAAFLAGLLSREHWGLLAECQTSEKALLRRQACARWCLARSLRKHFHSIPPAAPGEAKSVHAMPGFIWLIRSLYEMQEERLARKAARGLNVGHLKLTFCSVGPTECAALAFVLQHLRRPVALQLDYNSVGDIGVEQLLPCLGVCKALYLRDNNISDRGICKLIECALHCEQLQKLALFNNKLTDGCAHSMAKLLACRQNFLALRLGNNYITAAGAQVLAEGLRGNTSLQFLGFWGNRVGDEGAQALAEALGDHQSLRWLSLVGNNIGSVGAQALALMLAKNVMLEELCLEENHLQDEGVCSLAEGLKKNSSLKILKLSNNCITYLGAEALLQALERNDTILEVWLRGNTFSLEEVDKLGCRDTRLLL

`CCOc1ccc(NC(=O)c2ccc(CN3CCc4ccccc43)cc2)cc1`: the IC50 in data set [1], in data set [2] and in data set [4] was more than 20 µM in each case. Besides, the Activity in data set [3] is 0%.

For `CSc1ccc(NC(=O)c2ccc(CN3CCc4ccccc43)cc2)cc1`, the IC50 in data set [1], in data set [2] and in data set [4] was more than 20 µM throughout. Also, the Activity in data set [3] amounted to 0%.

Take `COc1ccc(C(=O)Cn2c(N)nc3ccccc32)cc1`: the IC50 in data set [1], in data set [2] and in data set [4] was more than 20 µM each time. Besides, in data set [3], the Activity is reported as 0%.

Regarding `CCC(=O)N1CCc2cc(S(=O)(=O)N3CCN(c4ccc(Cl)cc4)CC3)ccc21`, the concentration in solution in data set [5] (solubility) was 0.1 µg/mL (≈ 0.23 µM). The IC50 in data set [1], in data set [2] and in data set [4] was more than 20 µM each time. The Activity in data set [3] is given as 0%.

Turning to `CC(=O)c1ccc(N2CCN(S(=O)(=O)c3ccc4c(c3)CC(C)N4C(=O)C3CC3)CC2)cc1` (racemic), in data set [5], the solubility (usually the concentration that dissolves in the medium under given conditions) was determined as 0.1 µg/mL (≈ 0.214 µM). Further, the IC50 (in general, the concentration at which inhibition is half-maximal) in data set [1] is more than 20 µM; in data set [2], 10.3 µM; in data set [4], 7.9 µM. In data set [3], the Activity was 0%.

In data set [5], `CC1Cc2cc(S(=O)(=O)N3CCN(c4ccccc4)CC3)ccc2N1C(=O)C1CC1` (racemic) registered a solubility of 0.1 µg/mL (≈ 0.235 µM). The IC50 in data set [1] was 15.3 µM; in data set [2] it was more than 20 µM; in data set [4] it was 17.4 µM. Moreover, the Activity in data set [3] came to 0%.

In the case of `O=C(Nc1ccc(Cl)cc1)c1ccc(CCN2CCc3ccccc3C2)cc1`, the IC50 in data set [1], in data set [2] and in data set [4] was more than 20 µM each time. The compound also displayed an Activity in data set [3] of 0%.

Turning to `Cc1ccc(N2CCN(S(=O)(=O)c3ccc4c(c3)CC(C)N4C(=O)C3CC3)CC2)cc1` (racemic), the solubility in data set [5] was found to be 0.1 µg/mL (≈ 0.227 µM). Moreover, the IC50 in data set [1], in data set [2] and in data set [4] was more than 20 µM each time. Further, in data set [3], the Activity is given as 0%.

For the compound `CCOc1ccc(C(=O)Nc2ccc(CN3CCc4ccccc4C3)cc2)cc1`, the IC50 in data set [1], in data set [2] and in data set [4] was more than 20 µM in each case. Further, the Activity in data set [3] is given as 0%.

For `O=C(C1CC1)N1CCc2cc(S(=O)(=O)N3CCN(c4ccc(Cl)cc4)CC3)ccc21`, in data set [5], the concentration in solution (solubility) came to 0.1 µg/mL (≈ 0.224 µM). In addition, the IC50 in data set [1], in data set [2] and in data set [4] was more than 20 µM in each case. In addition, in data set [3], the Activity is 0%.

`CCC(=O)N1CCc2cc(S(=O)(=O)N3CCN(c4ccc(C(C)=O)cc4)CC3)ccc21` had a solubility in data set [5] of 0.1 µg/mL (≈ 0.226 µM). Also, the IC50 in data set [1], in data set [2] and in data set [4] was more than 20 µM each time. In addition, in data set [3], the Activity stood at 0%.

Turning to `Nc1nc2ccccc2n1C(=O)Cc1ccccc1`, the IC50 in data set [1], in data set [2] and in data set [4] was more than 20 µM each time. The compound also returned an Activity in data set [3] of 0%.

In the case of `O=C(Nc1ccc(CN2CCc3ccccc3C2)cc1)c1ccc(Cl)cc1`, the IC50 in data set [1], in data set [2] and in data set [4] was more than 20 µM in each case. In addition, the Activity in data set [3] worked out at 0%.

Consider `COc1ccc(NC(=O)c2ccc(CN3CCc4ccccc43)cc2)cc1`, for which the IC50 in data set [1], in data set [2] and in data set [4] was more than 20 µM each time. In addition, in data set [3], the Activity stood at 0%.

As to `O=C(Nc1ccc(S(=O)(=O)O)cc1)c1ccc(CN2CCc3ccccc3C2)cc1`, the IC50 in data set [1], in data set [2] and in data set [4] was more than 20 µM throughout. Moreover, in data set [3], the Activity turned out to be 0%.

With `O=C(Nc1ccc(OC(F)(F)F)cc1)c1ccc(CN2CCc3ccccc3C2)cc1`, the results for the IC50 in data set [1], in data set [2] and in data set [4] were 0.03 µM, 0.08 µM and 0.03 µM, respectively. The same compound showed an Activity in data set [3] of 0%.

For the compound `COc1ccc(NC(=O)c2ccc(CN3CCCCC3)cc2)cc1`, the IC50 in data set [1], in data set [2] and in data set [4] was more than 20 µM throughout. In data set [3], this compound returned an Activity of 0%.

As for `CCOc1ccc(NC(=O)c2ccc(CCN3CCc4ccccc4C3)cc2)cc1`, the IC50 in data set [1], in data set [2] and in data set [4] was more than 20 µM in each case. Besides, in data set [3], the Activity came to 0%.
